In the supplement of paper PMC13380429:

How the values were obtained:
Conditions in all cases: 72 h
Caco-2 [1] = assay: drug sensitivity score (DSS) for viability; higher = more toxic; extreme values may be limits of the assay
HepG2 [2] = assay: as above
U2OS [3] = assay: as above
Calu-3 [4] = assay: as above
Vero E6 [5] = assay: as above
Caco-2 [6] = assay: cell viability relative to DMSO; higher = less toxic
HepG2 [7] = assay: as above
U2OS [8] = assay: as above
Calu-3 [9] = assay: as above
Vero E6 [10] = assay: as above
Caco-2 [11] = assay: relative viability EC50 (midpoint between 100% and the lowest measured viability); higher = less toxic
HepG2 [12] = assay: as above
U2OS [13] = assay: as above
Calu-3 [14] = assay: as above
Vero E6 [15] = assay: as above

Structure (SMILES) | drug sensitivity score (Caco-2 [1]) | drug sensitivity score (HepG2 [2]) | drug sensitivity score (U2OS [3]) | drug sensitivity score (Calu-3 [4]) | drug sensitivity score (Vero E6 [5]) | cell viability (Caco-2 [6]; 1 nM) | cell viability (Caco-2 [6]; 10 nM) | cell viability (Caco-2 [6]; 100 nM) | cell viability (Caco-2 [6]; 1000 nM) | cell viability (Caco-2 [6]; 10000 nM) | cell viability (HepG2 [7]; 1 nM) | cell viability (HepG2 [7]; 10 nM) | cell viability (HepG2 [7]; 100 nM) | cell viability (HepG2 [7]; 1000 nM) | cell viability (HepG2 [7]; 10000 nM) | cell viability (U2OS [8]; 1 nM) | cell viability (U2OS [8]; 10 nM) | cell viability (U2OS [8]; 100 nM) | cell viability (U2OS [8]; 1000 nM) | cell viability (U2OS [8]; 10000 nM) | cell viability (Calu-3 [9]; 1 nM) | cell viability (Calu-3 [9]; 10 nM) | cell viability (Calu-3 [9]; 100 nM) | cell viability (Calu-3 [9]; 1000 nM) | cell viability (Calu-3 [9]; 10000 nM) | cell viability (Vero E6 [10]; 1 nM) | cell viability (Vero E6 [10]; 10 nM) | cell viability (Vero E6 [10]; 100 nM) | cell viability (Vero E6 [10]; 1000 nM) | cell viability (Vero E6 [10]; 10000 nM) | relative viability EC50 (Caco-2 [11]) | relative viability EC50 (HepG2 [12]) | relative viability EC50 (U2OS [13]) | relative viability EC50 (Calu-3 [14]) | relative viability EC50 (Vero E6 [15])
O=S(=O)(c1ccccc1)N(CC(F)(F)F)c1ccc(C(O)(C(F)(F)F)C(F)(F)F)cc1 | 0.5 | 1.8 | 0 | 0 | 0 | 96% | 89.8% | 93.9% | 87.5% | 87.5% | 97.1% | 107% | 94.3% | 87.4% | 78.3% | 104% | 101% | 102% | 97.7% | 96.5% | 107% | 96.5% | 99.2% | 98.2% | 99.7% | 103% | 102% | 98.1% | 101% | 98.8% | > 10 µM | > 10 µM | > 10 µM | > 10 µM | > 10 µM
C#C[C@]1(O)CC[C@H]2[C@@H]3CCC4=CC(=NO)CC[C@@H]4[C@H]3CC[C@@]21CC (mixture of isomers) [norelgestromin] | 0 | 0 | 0 | 0 | 0 | 89% | 94.1% | 91.7% | 98.3% | 98.5% | 95.9% | 101% | 105% | 108% | 110% | 99.1% | 101% | 94.4% | 101% | 98.6% | 102% | 95.2% | 103% | 93.5% | 101% | 102% | 101% | 92% | 99.1% | 103% | > 10 µM | > 10 µM | > 10 µM | > 10 µM | > 10 µM
CSc1ccc([C@H]2CN3CCC[C@H]3c3ccccc32)cc1 (racemic) [McN-5652-(+/-)] | 0 | 0 | 0 | 0 | 0 | 92.2% | 100% | 96.1% | 103% | 98.7% | 102% | 89.9% | 98.5% | 90.3% | 105% | 97.8% | 105% | 96.8% | 105% | 102% | 102% | 101% | 106% | 84.9% | 105% | 99.6% | 102% | 102% | 96.3% | 104% | > 10 µM | > 10 µM | > 10 µM | > 10 µM | > 10 µM
Nc1nccc2c1ncn2C1C=C(CO)C(O)C1O (centres undefined) [3-deazaneplanocin-A] | 2 | 8.8 | 6.3 | 1 | 9.4 | 102% | 104% | 99.3% | 88% | 77% | 105% | 106% | 86.7% | 62.7% | 25.7% | 105% | 97.4% | 91.8% | 69.3% | 57.8% | 97.4% | 97.5% | 108% | 85.9% | 89.9% | 98.8% | 100% | 89.1% | 56.6% | 36.2% | > 10 µM | 0.832 µM | – | > 10 µM | 0.47 µM
CC(=O)Nc1nc2c(Oc3cc(-c4ccc(C(F)(F)F)cc4)ncn3)cccc2s1 [AMG-517] | 0 | 0 | – | 0 | 0 | 102% | 96.5% | 103% | 97.2% | 94.4% | 112% | 98.3% | 95.4% | 102% | 91.8% | – | – | – | – | – | 104% | 86.1% | 100% | 92.4% | 92.5% | 101% | 102% | 101% | 102% | 99.4% | > 10 µM | > 10 µM | – | > 10 µM | > 10 µM
CCOC(=O)CNC(=O)[C@@H]1CCCN1C(=O)Cc1ccccc1 [DVD-111] | 0 | 0 | – | 0 | 0 | 110% | 102% | 114% | 97% | 107% | 98.8% | 97.2% | 90.9% | 93.5% | 96.9% | – | – | – | – | – | 106% | 98.4% | 106% | 93.7% | 116% | 103% | 105% | 98.8% | 104% | 101% | > 10 µM | > 10 µM | – | > 10 µM | > 10 µM
CCc1cccc(CC)c1NC(=O)c1nn(C)c2c1CCc1cnc(Nc3ccc(C(=O)NC4CCN(C)CC4)cc3OC(F)(F)F)nc1-2 [NMS-P715] | – | 2.1 | 0 | 0 | 0.7 | – | – | – | – | – | 114% | 103% | 107% | 112% | 48.2% | 95.9% | 99.7% | 98.1% | 102% | 98.7% | 91.9% | 97.7% | 98.8% | 105% | 104% | 104% | 88.8% | 104% | 94.7% | 84.7% | – | 3.99 µM | > 10 µM | > 10 µM | > 10 µM
C=CCc1cccc(/C=N/NC(=O)CN2CCN(Cc3ccccc3)CC2)c1O [PAC-1] | 8 | 7.1 | 3.1 | 4.6 | 3.3 | 98.2% | 102% | 91.5% | 82.3% | 8% | 104% | 105% | 94% | 87% | 11.5% | 97.5% | 101% | 95.9% | 96.6% | 50.6% | 89.6% | 103% | 102% | 101% | 15.8% | 103% | 103% | 104% | 95.9% | 48.7% | 1.77 µM | 2 µM | – | 3.25 µM | 2.52 µM
Cc1cccc(C)c1NC(=O)C[N+](C)(C)C [QX-222] | 0 | 0 | – | 0 | 0 | 107% | 97% | 99.1% | 100% | 112% | 106% | 103% | 99% | 95.5% | 95.8% | – | – | – | – | – | 102% | 93.8% | 107% | 94.9% | 106% | 102% | 101% | 98.7% | 105% | 99.7% | > 10 µM | > 10 µM | – | > 10 µM | > 10 µM
CCOC(=O)c1ncn2c1CN(C)C(=O)c1cc(N=[N+]=[N-])ccc1-2 [Ro-15-4513] | 0 | 0 | – | 0 | 0 | 96.2% | 100% | 94.6% | 99.6% | 109% | 107% | 92.2% | 102% | 99.1% | 112% | – | – | – | – | – | 103% | 93.9% | 97% | 102% | 108% | 94.6% | 94% | 99.3% | 97.2% | 104% | > 10 µM | > 10 µM | – | > 10 µM | > 10 µM
CCCCN(CC)c1nc(C)nc2c1c(C)c(C)n2-c1c(C)cc(C)cc1C [antalarmin] | 2.5 | 1.1 | 0 | 0 | 0 | 105% | 92.9% | 102% | 91.4% | 70.3% | 99% | 97.2% | 97.4% | 97.8% | 77.2% | 107% | 98.8% | 98.1% | 99% | 101% | 102% | 94.4% | 95.6% | 99% | 104% | 96% | 92.6% | 97.3% | 101% | 98.2% | – | > 10 µM | > 10 µM | > 10 µM | > 10 µM
CCOC(=O)OC(C)OC(=O)[C@@H]1N2C(=O)[C@@H](NC(=O)[C@H](N)c3ccccc3)[C@H]2SC1(C)C (some centres undefined) [bacampicillin] | 0 | 0 | – | 0 | 0 | 96.3% | 94% | 95.9% | 98% | 104% | 97.6% | 114% | 103% | 100% | 94.6% | – | – | – | – | – | 94.1% | 82.4% | 102% | 103% | 110% | 91.8% | 96.7% | 97.9% | 98.1% | 98.6% | > 10 µM | > 10 µM | – | > 10 µM | > 10 µM
C[C@@H](c1nc(-c2ccc(C#N)cc2)cs1)[C@](O)(Cn1cncn1)c1cc(F)ccc1F [isavuconazole] | 1.8 | 0.6 | 0 | 0 | 0 | 96.3% | 99.8% | 96% | 93.9% | 74.3% | 106% | 96% | 93.8% | 100% | 79.2% | 98.2% | 102% | 93.9% | 101% | 90.9% | 95.7% | 90.1% | 98.7% | 101% | 99.2% | 100% | 98% | 102% | 98.6% | 100% | – | > 10 µM | > 10 µM | > 10 µM | > 10 µM
CCN(CC)C(=O)[C@@]1(c2ccccc2)C[C@H]1CN [milnacipran] | 0 | 0 | – | 0 | 0 | 99.9% | 87.3% | 87.5% | 99.8% | 98.7% | 101% | 86.7% | 98.9% | 107% | 90.9% | – | – | – | – | – | 106% | 93.5% | 97.9% | 95% | 97.9% | 94.6% | 102% | 97.8% | 102% | 98.2% | > 10 µM | > 10 µM | – | > 10 µM | > 10 µM
CCOc1cc2ncc(C#N)c(Nc3ccc(F)c(Cl)c3)c2cc1NC(=O)/C=C/CN(C)C [pelitinib] | 7.9 | 8.1 | 9.3 | 21.7 | 15.9 | 96.9% | 96.9% | 85.8% | 64.7% | 51.2% | 107% | 99.5% | 99% | 59.7% | 40.2% | 99% | 98.9% | 93.6% | 67.7% | 5.3% | 88.1% | 83% | 45% | 32% | 9.5% | 106% | 96.4% | 87.3% | 22.6% | 7.9% | – | 0.706 µM | 1.38 µM | 0.0707 µM | 0.334 µM
COC[C@@H](c1ccc(C(F)(F)F)cc1)N1CCN(C2(C)CCN(C(=O)c3c(C)ncnc3C)CC2)C[C@@H]1C [vicriviroc] | – | 0.2 | 0 | 0 | 0 | – | – | – | – | – | 98.8% | 101% | 98.9% | 101% | 84.8% | 100% | 94.2% | 95% | 96.6% | 95% | 106% | 93.6% | 104% | 96.6% | 104% | 95.3% | 97% | 89.9% | 95.7% | 94.7% | – | > 10 µM | > 10 µM | > 10 µM | > 10 µM
